Values after ≈ are worked out from the molar mass of the structure shown.
Key:
Staphylococcus aureus = test: In vitro antibacterial susceptibility, Staphylococcus aureus; assay type: cell-based; conditions: 10^5 CFU, about 24 hour, about 37° C.
Procedure: FIG. 8 illustrates in vitro Staphylococcus aureus antibacterial susceptibility to LNP 1 of the present invention encapsulating doxycycline as compared to free form doxycycline both at MIC 0.4 mcg/ml.
(§1) Free form doxycycline and LNP 1 of the present invention containing doxy were separately applied to Staphylococcus aureus bacteria as well as methicillin-resistant Staphylococcus aureus at 10^5 CFU, incubation with LNP for about 24 hour at about 37° C.

[1] = test system: methicillin-resistant Staphylococcus aureus; test: In vitro antibacterial susceptibility, methicillin-resistant Staphylococcus aureus; assay type: cell-based; conditions: 10^5 CFU, about 24 hour, about 37° C.
Procedure: FIG. 9 illustrates in vitro methicillin-resistant Staphylococcus aureus antibacterial susceptibility to LNP 1 of the present invention encapsulating doxycycline as compared to free form doxycycline both at MIC 0.4 mcg/ml.
as §1

[2] = In vitro drug release by dialysis at pH 7.4 (PBS) and pH 5.4 (citrate buffer), 37° C.; assay type: physicochemical
Text: The “normalized release” is defined as release ratio in pH 5.4 environment divided by release ratio in pH 7.4 environment wherein the release ratio is defined as the percentage of API released from LNP. A high normalized release is a result of high release ratio in pH 5.4 environment as compared to the release ratio in pH 7.4 environment. Since tumor sites present acidic environment, a high normalized release is a metric indicating tumor targeting capability of an LNP. During experiments, PBS buffer was used to simulate a physiological environment at pH of 7.4, while citrate buffer was used to simulate a tumor microenvironment at pH of 5.4, wherein the citrate buffer contains sodium citrate dehydrate and citric acid and its pH can be adjusted using NaOH and HCl. The in vitro API release was evaluated in these two different solutions using the following steps: 1 mg/mL LNP-dox solution in PBS buffer was prepared by diluting LNP-dox using PBS buffer. The solution was placed into a 1 mL/5 cm dialysis tube (Float-A-lyzer), in which the pore size is 100 kDa. The tube was placed into a beaker containing 150 mL dialysis buffer. The beaker was then placed into a 37° C. water bath. Samples of 1 mL solution were taken from the beaker at 0, 0.5, 1, 2, 4, 8, 26, and 31 hour(s). The API content in the samples was analyzed using UV-Vis spectrophotometer such as […]. […]

colon-26 carcinoma tumor = test: In vivo therapeutic efficacy in colon-26 carcinoma tumor-bearing mice; set-up: species or system BALB/c mice; conditions: end of the experiment; 5 mg/kg of dox via tail vein, once per week
Procedure: C26 […] cancer cell line was implanted into the backs of BALB/c mice to create colon-26 carcinoma tumor-bearing mice. When the tumor grew to 100 mm^3, LNP 1 of the present invention containing dox was injected via mice's vein located in the tail at a dosage of 5 mg/kg of dox, once per week. At predetermined time periods 1, 2, 5, 7, 9, 12, 14, 19, 21, 22 days, tumor volume was determined by Vernier caliper. The experiment continued until either mouse death or the tumor size exceeding 2,500 mm^3.

Row | SMILES | MIC (Staphylococcus aureus) [µg/mL] | MIC [1] [µg/mL] | normalized release (release ratio at pH 5.4 / release ratio at pH 7.4) ([2]; 37° C., dialysis, up to 31 hours) | release rate (in words) ([2]; pH 7.4 and pH 5.4, 37° C., FIG. 6) | mice that died or had tumor size of over 2500 mm^3 (colon-26 carcinoma tumor) [%]
1 | C[C@H]1c2cccc(O)c2C(=O)C2=C(O)[C@]3(O)C(=O)C(C(N)=O)=C(O)[C@@H](N(C)C)[C@@H]3[C@@H](O)[C@@H]21 [free form doxycycline, doxycycline] | 0.4 (≈ 0.9 µM) | 0.4 (≈ 0.9 µM) | – | – | –
2 | COc1cccc2c1C(=O)c1c(O)c3c(c(O)c1C2=O)C[C@@](O)(C(=O)CO)C[C@@H]3O[C@H]1C[C@H](N)[C@H](O)[C@H](C)O1 [free form dox, doxorubicin] | – | – | about 1 | released the fastest of the three | 40

Reference: US20220296518A1, “LIPID-BASED NANOPARTICLE DELIVERY SYSTEM FOR HYDROPHILIC CHARGED COMPOUND” (National Taiwan University, priority 2021, published 2022)
